The values below are quoted from earlier work in patent US11154563B2, “Immunoproteasome inhibitors” (Principia Biopharma Inc., priority 2017, dated 2021).

Each structure is given as a SMILES string.

Data set [1] has as its system Hashimoto's thyroiditis model. To be noted: autoantibody-driven model; cited from earlier work.
Data set [2] deals with murine DSS-induced colitis model. To be noted: cited from earlier work.
The next data set relates to MRL/lpr lupus model. The following applies: cited from earlier work.
In data set [3] the test system is murine collagen-induced arthritis. The following applies: including reduction of inflammation and bone erosion; cited from earlier work.
The next data set deals with Th1/17 differentiation. The following applies: human and mouse; cited from earlier work.
Data set [4] deals with multiple myeloma cell lines and primary patient tumor cells. To be noted: including cells resistant to conventional and novel prior therapies; cited from earlier work.
The subject of another data set is tumor growth. To be noted: cited from earlier work.
A further data set has as its system prostate PC-3 cell line. The following applies: in vitro; cited from earlier work.

In the case of `COc1ccc(C[C@H](NC(=O)[C@H](C)NC(=O)CN2CCOCC2)C(=O)N[C@@H](Cc2ccccc2)C(=O)[C@@]2(C)CO2)cc1` [PR-957], the “efficacy in Hashimoto's thyroiditis model” value in data set [1] is recorded as “efficacious”. The “inflammation and tissue destruction” value in data set [2] was “reduced inflammation and tissue destruction”. In the data set with MRL/lpr lupus model, the disease progression entry is given as “prevented disease progression”; the “plasma cell numbers and anti-dsDNA IgG levels” value was “reduced plasma cell numbers and anti-dsDNA IgG levels”. Further, in data set [3], the “disease activity in collagen-induced arthritis” value is given as “significantly inhibit disease activity”. In addition, the “block of Th1/17 differentiation” value in the data set on Th1/17 differentiation was “potently block”.

Regarding `CC1=C(C(=O)N[C@H](C)C(=O)N[C@@H](Cc2c[nH]c3ccccc23)C(=O)N[C@@H](Cc2ccccc2)C(=O)[C@@]2(C)CO2)Cc2ccccc21` [PR-924], in data set [4], the “growth of multiple myeloma cells” value is reported as “inhibit growth”.

Turning to `CCCCCCC(=O)N[C@@H](C)C(=O)N[C@@H](CC(C)C)C(=O)[C@@]1(CO[Si](C)(C)C(C)(C)C)CO1` [UK-101], in the data set with tumor growth, the “tumor growth in vivo” value is given as “significantly suppressed tumor growth”. The “apoptosis of PC-3 cells” value in the data set with prostate PC-3 cell line is “induced apoptosis”.
